# Assay results from patent US20260325487A1 (BS BIOTECHNA SPOLKA AKCYJNA, priority 2023, published 2026).
# What was measured:
# Format in all cases: cell-based
# [1] = test system: LUDLU-1; experiment: SRB anti-proliferative assay, LUDLU-1, molecular combination and nanoparticles, with combination index (Example III); conditions: Homo sapiens, LUDLU-1, read-out: Zah. (inhibition of cell proliferation)
# Method: (§1) Cells were thawed from ampoules stored in liquid nitrogen and cultured in petri dishes in the appropriate culture medium according to Table 16, in a humidified 5% CO2 atmosphere at 37° C. Cells were passaged twice weekly using EDTA-Trypsin solution, pH 8, as a separating agent. Counted cells with a viability of at least 90% as assessed with Trypan-Blue solution were used for anti-proliferation assays.
# (§2) Twenty-four hours before the addition of the test compounds/combinations, cells were seeded into 384-well plates at 50 μL/well and a density of 10^3 cells/well, in the appropriate culture medium. […] Solutions of the compounds were diluted in the test medium—RPMI-1640 and Opti-MEM in a 1:1 ratio, and the medium was supplemented with 2 mM glutamine and 5% fetal bovine serum FBS.
# (§3) After 72 h, colourimetric assessment of cell growth was performed by SRB. […] Unbound dye was removed by washing the plates (4×) in 1% (v/v) acetic acid, and protein-bound dye was extracted with 10 mM unbuffered Tris base and the optical density (A=540 nm) was determined in a BioTek Synergy H4 Hybrid computer microplate reader (BioTek Instruments USA). The entire washing/staining procedure was performed using a BioTek EL406 washing station (BioTek Instruments USA). The raw absorbance results were analysed in Microsoft Excel software using the formula:
# (§4) [formula] • Where: • % Zahlnh-inhibition of proliferation • Am—absorbance of wells without cells (medium) • Ak—absorbance of control wells (cells treated with pure culture medium) • Ap—absorbance of wells treated with compounds
# (§5) Each compound at the indicated concentrations was tested in triplicate in one experiment. Each experiment was repeated three times. Data analysis was supplemented with synergy assessment using CalcuSyn software. […] A CI value below 0.8 indicates synergism, 0.8-1.2 an additive effect, above 1.2 an antagonism.
# [2] = test system: Hs683; experiment: SRB anti-proliferative assay, Hs683, molecular combination and nanoparticles, with combination index (Example III); conditions: Homo sapiens, Hs 683, 72 h, read-out: Zah. (inhibition of proliferation)
# Method: as §1, §2, §3, §4, §5
# [3] = test system: NCI-H1975; experiment: SRB anti-proliferative assay, NCI-H1975, with CalcuSyn combination index (Example 1); conditions: Homo sapiens, NCI-H1975, 72 h, read-out: Zah. (inhibition of proliferation)
# Method: (§6) Cells were thawed from ampoules stored in liquid nitrogen and cultured in petri dishes in appropriate culture medium according to Table 2, in a humidified 5% CO2 atmosphere at 37° C. Cells were passaged twice weekly using EDTA-Trypsin solution, pH 8. Counted cells with a viability of at least 90% as assessed with Trypan-Blue solution were used for anti-proliferative assays.
# (§7) Twenty-four hours before the addition of the test compounds/combinations, cells were seeded into 384-well plates at 50 μL/well and a density of 10^3 cells/well, in the appropriate culture medium.
# as §3, with “Solutions of the compounds were diluted in the test medium-RPMI-1640 and Opti-MEM in a 1:1 ratio, and the medium was supplemented with 2 mM glutamine and 5% fetal bovine serum FBS. After” for “After”
# as §4, §5
# [4] = test system: SK-MES-1; experiment: SRB anti-proliferative assay, SK-MES-1, with CalcuSyn combination index (Example 1); conditions: Homo sapiens, SK-MES-1, 72 h, read-out: Zah. (inhibition of proliferation)
# Method: as §6, §7
# as §3, with “Solutions of the compounds were diluted in the test medium-RPMI-1640 and Opti-MEM in a 1:1 ratio, and the medium was supplemented with 2 mM glutamine and 5% fetal bovine serum FBS. After” for “After”
# as §4, §5
# [5] = test system: SKMES-1; experiment: SRB anti-proliferative assay, SKMES-1, molecular combination and nanoparticles, with combination index (Example III); conditions: Homo sapiens, SK-MES-1, read-out: Inhibition of cell proliferation (Zah.)
# Method: as §1, §2, §3, §4, §5
# [6] = test system: LN229; experiment: SRB anti-proliferative assay, LN229, with CalcuSyn combination index (Example 1); conditions: Homo sapiens, LN-229, 72 h, read-out: Zah. (inhibition of proliferation)
# Method: as §6, §7
# as §3, with “Solutions of the compounds were diluted in the test medium-RPMI-1640 and Opti-MEM in a 1:1 ratio, and the medium was supplemented with 2 mM glutamine and 5% fetal bovine serum FBS. After” for “After”
# as §4, §5
# [7] = test system: NCI-H1299; experiment: SRB anti-proliferative assay, NCI-H1299, with CalcuSyn combination index (Example 1); conditions: Homo sapiens, NCI-H1299, 72 h, read-out: Zah. (inhibition of proliferation)
# Method: as §6, §7
# as §3, with “Solutions of the compounds were diluted in the test medium-RPMI-1640 and Opti-MEM in a 1:1 ratio, and the medium was supplemented with 2 mM glutamine and 5% fetal bovine serum FBS. After” for “After”
# as §4, §5
# [8] = test system: BxPC3; experiment: SRB anti-proliferative assay, BxPC3, with CalcuSyn combination index (Example 1); conditions: Homo sapiens, BXPC-3, 72 h, read-out: Zah. (inhibition of proliferation)
# Method: as §6, §7
# as §3, with “Solutions of the compounds were diluted in the test medium-RPMI-1640 and Opti-MEM in a 1:1 ratio, and the medium was supplemented with 2 mM glutamine and 5% fetal bovine serum FBS. After” for “After”
# as §4, §5
# [9] = test system: NCI-H520; experiment: SRB anti-proliferative assay, NCI-H520, with CalcuSyn combination index (Example 1); conditions: Homo sapiens, NCI-H520, 72 h, read-out: Zah. (inhibition of proliferation)
# Method: as §6, §7
# as §3, with “Solutions of the compounds were diluted in the test medium-RPMI-1640 and Opti-MEM in a 1:1 ratio, and the medium was supplemented with 2 mM glutamine and 5% fetal bovine serum FBS. After” for “After”
# as §4, §5
smiles,measurement,setting,value
"C=CCNC1=C2C[C@@H](C)C[C@H](OC)[C@H](O)[C@@H](C)/C=C(\C)[C@H](OC(N)=O)[C@@H](OC)/C=C\C=C(/C)C(=O)NC(=CC1=O)C2=O [17AAG, 17-AAG (tanespimycin)]",inhibition at 0.0003163 µM,[1],3.9%
same,inhibition at 0.001 µM,[1],29.3%
same,inhibition at 0.0032 µM,[1],61.9%
same,inhibition at 0.01 µM,[1],75.1%
same,inhibition at 0.0316 µM,[1],60.2%
same,inhibition at 0.1 µM,[1],65.7%
same,inhibition at 0.3163 µM,[1],76.9%
same,inhibition at 1 µM,[1],80.2%
same,inhibition at 0.0003163 µM,[2],8.3%
same,inhibition at 0.001 µM,[2],50.3%
same,inhibition at 0.0032 µM,[2],63%
same,inhibition at 0.01 µM,[2],93.9%
same,inhibition at 0.0316 µM,[2],79.2%
same,inhibition at 0.1 µM,[2],82%
same,inhibition at 0.3163 µM,[2],91%
same,inhibition at 1 µM,[2],94.3%
same,inhibition at 0.0031 µM,[3],10%
same,inhibition at 0.01 µM,[3],25.2%
same,inhibition at 0.0314 µM,[3],66.7%
same,inhibition at 0.1 µM,[3],84.1%
same,inhibition at 0.3155 µM,[3],87.6%
same,inhibition at 1 µM,[3],88.5%
same,inhibition at 3.1546 µM,[3],88.4%
same,inhibition at 10 µM,[3],86.6%
same,inhibition at 0.0031 µM,[4],9.2%
same,inhibition at 0.01 µM,[4],12.7%
same,inhibition at 0.03 µM,[4],55.1%
same,inhibition at 0.1 µM,[4],80%
same,inhibition at 0.3124 µM,[4],85.2%
same,inhibition at 1 µM,[4],86.5%
same,inhibition at 3.1392 µM,[4],86.9%
same,inhibition at 10 µM,[4],87%
same,inhibition at 0.0003163 µM,[5],2.2%
same,inhibition at 0.001 µM,[5],46.7%
same,inhibition at 0.0032 µM,[5],86.7%
same,inhibition at 0.01 µM,[5],90.6%
same,inhibition at 0.0316 µM,[5],85.1%
same,inhibition at 0.1 µM,[5],87.9%
same,inhibition at 0.3163 µM,[5],89.3%
same,inhibition at 1 µM,[5],89.1%
same,inhibition at 0.0032 µM,[6],3.3%
same,inhibition at 0.01 µM,[6],3.1%
same,inhibition at 0.0316 µM,[6],18.4%
same,inhibition at 0.1 µM,[6],28.9%
same,inhibition at 0.3163 µM,[6],38.7%
same,inhibition at 1 µM,[6],62.9%
same,inhibition at 3.1625 µM,[6],71.6%
same,inhibition at 10.0005 µM,[6],81.5%
same,inhibition at 0.0031 µM,[7],5.1%
same,inhibition at 0.01 µM,[7],10.5%
same,inhibition at 0.0314 µM,[7],43.4%
same,inhibition at 0.1 µM,[7],80.8%
same,inhibition at 0.3155 µM,[7],93.4%
same,inhibition at 1 µM,[7],96.9%
same,inhibition at 3.1546 µM,[7],96.8%
same,inhibition at 10 µM,[7],95.3%
same,inhibition at 0.0031 µM,[8],1.7%
same,inhibition at 0.01 µM,[8],2.7%
same,inhibition at 0.0314 µM,[8],24.4%
same,inhibition at 0.1 µM,[8],54.7%
same,inhibition at 0.3155 µM,[8],75.9%
same,inhibition at 1 µM,[8],89.4%
same,inhibition at 3.1546 µM,[8],95.3%
same,inhibition at 10 µM,[8],95.2%
same,inhibition at 0.0031 µM,[9],5.9%
same,inhibition at 0.01 µM,[9],15.3%
same,inhibition at 0.03 µM,[9],28.3%
same,inhibition at 0.1 µM,[9],48.1%
same,inhibition at 0.3124 µM,[9],56.8%
same,inhibition at 1 µM,[9],59.9%
same,inhibition at 3.1392 µM,[9],63.5%
same,inhibition at 10 µM,[9],65.8%
